Legend:
MCF7 = test: Cytotoxicity against human MCF7 cells after 48 hrs by SRB assay; assay type: cell-based; conditions: mcf7, 48 h
MCF7/ADM = test: Reversal of p-gp-mediated multidrug-resistance in human MCF7/ADM cells assessed as enhancement intensity at 10 ug/mL after 48 hrs by SRB assay relative to adriamycin; assay type: cell-based
[1] = Reversal of p-gp-mediated multidrug-resistance in human MCF7/ADM cells after 48 hrs by SRB assay; assay type: cell-based
MCF/ADR = test: Reversal of P-gp-mediated multidrug resistance in human MCF/ADR cells assessed as reversal fold after 48 hrs by SRB assay relative to control; assay type: cell-based
[2] = Octanol-water partition coefficient, log P of the compound; assay type: physicochemical

Row | SMILES | Activity (MCF7) | Activity (MCF7/ADM) [%] | IC50 [1] [µg/mL] | Ratio IC50 (MCF/ADR) | logP [2]
1 | CC(=O)OC/C1=C\C[C@H]2[C@@H](/C=C(\C)C(=O)[C@@]3(OC(C)=O)C[C@H](C)[C@H](OC(=O)c4ccccc4)[C@@H]3[C@H]1OC(C)=O)C2(C)C (relative stereo) | Not Active | 15 | 248 | 4.36 | 6.1
2 | COc1ccc(CCN(C)CCCC(C#N)(c2ccc(OC)c(OC)c2)C(C)C)cc1OC (configuration not stated) [VERAPAMIL] |  | 19 | 367 | 2.95 | 
3 | CC(=O)O[C@@H]1[C@H]2[C@@H](OC(=O)Cc3ccccc3)[C@@H](C)C[C@]2(OC(C)=O)C(=O)/C(C)=C/[C@@H]2[C@H](CC[C@]13CO3)C2(C)C | Not Active | 22 | 246 | 4.4 | 5.6
4 | CC(=O)OC/C1=C/[C@H]2[C@@H](OC(=O)/C=C/c3ccccc3)[C@@H](C)C[C@]2(OC(C)=O)C(=O)/C(C)=C/[C@@H]2[C@H](CC1)C2(C)C (relative stereo) | Not Active | 54 | 105 | 10.3 | 5.8
5 | C=C1[C@@H](OC(=O)c2ccccc2)C[C@H]2[C@@H](/C=C(\C)C(=O)[C@@]3(OC(C)=O)C[C@H](C)[C@H](OC(=O)c4ccccc4)[C@@H]3[C@H]1OC(C)=O)C2(C)C | Not Active | 34 | 84.3 | 12.8 | 7.9
6 | C=C1CC[C@H]2[C@@H](/C=C(\C)C(=O)[C@@]3(OC(C)=O)C[C@H](C)[C@H](OC(=O)c4ccccc4)[C@@H]3[C@H]1OC(C)=O)C2(C)C |  | 25 | 165 | 6.57 | 6.4
